Biological target: PD-1/PD-L1 (Homo sapiens (Human), UniProt Q9NZQ7)
Assay: PD-1/PD-L1 binding assay (HTRF)
Method: The assays were conducted in a standard black 384-well polystyrene plate with a final volume of 20 μL. Inhibitors were first serially diluted in DMSO and then added to the plate wells before the addition of other reaction components. The final concentration of DMSO in the assay was 1%. The assays were carried out at 25° C. in the PBS buffer (pH 7.4) with 0.05% Tween-20 and 0.1% BSA. Recombinant human PD-L1 protein (19-238) with a His-tag at the C-terminus was purchased from AcroBiosystems (PD1-H5229). Recombinant human PD-1 protein (25-167) with Fc tag at the C-terminus was also purchased from AcroBiosystems (PD1-H5257). PD-L1 and PD-1 proteins were diluted in the assay buffer and 10 μL was added to the plate well. Plates were centrifuged and proteins were preincubated with inhibitors for 40 minutes. The incubation was followed by the addition of 10 μL of HTRF detection buffer supplemented with Europium cryptate-labeled anti-human IgG (PerkinElmer-AD0212) specific for Fc and anti-His antibody conjugated to SureLight®-Allophycocyanin (APC, PerkinElmer-AD0059H). After centrifugation, the plate was incubated at 25° C. for 60 min. before reading on a PHERAstar FS plate reader (665 nm/620 nm ratio). Final concentrations in the assay were […], 10 nM PD-L1, 1 nM europium anti-human IgG and 20 nM anti-His-Allophycocyanin. IC50 determination was performed by fitting the curve of percent control activity versus the log of the inhibitor concentration using the GraphPad Prism 5.0 software.

Chain of PD-1/PD-L1 (Q9NZQ7 19-238): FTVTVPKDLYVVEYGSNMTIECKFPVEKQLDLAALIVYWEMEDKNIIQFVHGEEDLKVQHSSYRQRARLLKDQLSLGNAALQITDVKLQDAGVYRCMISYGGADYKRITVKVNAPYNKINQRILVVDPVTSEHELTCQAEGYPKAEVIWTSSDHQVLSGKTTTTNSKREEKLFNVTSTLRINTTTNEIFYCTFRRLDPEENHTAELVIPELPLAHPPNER

Row | SMILES | IC50 [nM]
1 | CN1CCc2c(nc(C(=O)Nc3cccc(-c4cccc(NC(=O)c5nc6c(n5C)CCN(CC57CCC(C(=O)O)(CC5)C7)C6)c4Cl)c3Cl)n2C)C1 [Example 84, 4-((2-((2,2′-dichloro-3′-(1,5-dimethyl-4,5,6,7-tetrahydro-1H-imidazo[4,5-c]pyridine-2-carboxamido)-[1,1′-biphenyl]-3-yl)carbamoyl)-1-methyl-1,4,6,7-tetrahydro-5H-imidazo[4,5-c]pyridin-5-yl)methyl)bicyclo[2.2.1]heptane-1-carboxylic acid] | ≤ 10
2 | Cc1c(NC(=O)c2nc3c(n2C)CCNC3)cccc1-c1cccc(NC(=O)c2nc3c(n2C)CCN(CC[C@H]2CC[C@H](C(=O)O)CC2)C3)c1Cl [Example 126, trans-4-(2-(2-((2-chloro-2′-methyl-3′-(1-methyl-4,5,6,7-tetrahydro-1H-imidazo[4,5-c]pyridine-2-carboxamido)-[1,1′-biphenyl]-3-yl)carbamoyl)-1-methyl-1,4,6,7-tetrahydro-5H-imidazo[4,5-c]pyridin-5-yl)ethyl)cyclohexane-1-carboxylic acid] | ≤ 10
3 | Cn1c(C(=O)Nc2cccc(-c3cccc(NC(=O)c4nc5c(n4C)CCN(C4CCC4)C5)c3Cl)c2Cl)nc2c1CCN(CC[C@H]1CC[C@H](C(=O)O)CC1)C2 [Example 89, trans-4-(2-(2-((2,2′-dichloro-3′-(5-cyclobutyl-1-methyl-4,5,6,7-tetrahydro-1H-imidazo[4,5-c]pyridine-2-carboxamido)-[1,1′-biphenyl]-3-yl)carbamoyl)-1-methyl-1,4,6,7-tetrahydro-5H-imidazo[4,5-c]pyridin-5-yl)ethyl)cyclohexane-1-carboxylic acid] | ≤ 10
4 | CCC1(C(=O)O)CCC(N2CCc3c(nc(C(=O)Nc4cccc(-c5cccc(NC(=O)c6nc7c(n6C)CCN(C6CCOCC6)C7)c5Cl)c4Cl)n3C)C2)CC1 (stereo not shown) [Example 99, 4-(2-((2,2′-dichloro-3′-(1-methyl-5-(tetrahydro-2H-pyran-4-yl)-4,5,6,7-tetrahydro-1H-imidazo[4,5-c]pyridine-2-carboxamido)-[1,1′-biphenyl]-3-yl)carbamoyl)-1-methyl-1,4,6,7-tetrahydro-5H-imidazo[4,5-c]pyridin-5-yl)-1-ethylcyclohexane-1-carboxylic acid] | ≤ 10
5 | Cc1c(NC(=O)c2nc3c(n2C)CCN(C2CCOCC2)C3)cccc1-c1cccc(NC(=O)c2nc3c(n2C)CCN(C[C@H]2CC[C@@H](C(=O)O)CC2)C3)c1Cl [Example 136, cis-4-((2-((2-chloro-2′-methyl-3′-(1-methyl-5-(tetrahydro-2H-pyran-4-yl)-4,5,6,7-tetrahydro-1H-imidazo[4,5-c]pyridine-2-carboxamido)-[1,1′-biphenyl]-3-yl)carbamoyl)-1-methyl-1,4,6,7-tetrahydro-5H-imidazo[4,5-c]pyridin-5-yl)methyl)cyclohexane-1-carboxylic Acid] | ≤ 10
6 | Cc1c(NC(=O)c2nc3c(n2C)CCN(C2CCOCC2)C3)cccc1-c1cccc(NC(=O)c2nc3c(n2C)CCN(C2CCC(C)(C(=O)O)CC2)C3)c1Cl (single isomer, unassigned) [142 (compound 142-1), 4-(2-((2-chloro-2′-methyl-3′-(1-methyl-5-(tetrahydro-2H-pyran-4-yl)-4,5,6,7-tetrahydro-1H-imidazo[4,5-c]pyridine-2-carboxamido)-[1,1′-biphenyl]-3-yl)carbamoyl)-1-methyl-1,4,6,7-tetrahydro-5H-imidazo[4,5-c]pyridin-5-yl)-1-methylcyclohexane-1-carboxylic acid] | ≤ 10
7 | Cc1c(NC(=O)c2nc3c(n2C)CCN(CC[C@H]2CC[C@H](C(=O)O)CC2)C3)cccc1-c1cccc(NC(=O)c2nc3c(n2C)CCN(C2CCOCC2)C3)c1Cl [Example 109, trans-4-(2-(2-((2′-chloro-2-methyl-3′-(1-methyl-5-(tetrahydro-2H-pyran-4-yl)-4,5,6,7-tetrahydro-1H-imidazo[4,5-c]pyridine-2-carboxamido)-[1,1′-biphenyl]-3-yl)carbamoyl)-1-methyl-1,4,6,7-tetrahydro-5H-imidazo[4,5-c]pyridin-5-yl)ethyl)cyclohexane-1-carboxylic acid] | ≤ 10
8 | CCC1(C(=O)O)CCC(N2CCc3c(nc(C(=O)Nc4cccc(-c5cccc(NC(=O)c6nc7c(n6C)CCN(C)C7)c5C)c4Cl)n3C)C2)CC1 (stereo not shown) [Example 121, 4-(2-((2-chloro-3′-(1,5-dimethyl-4,5,6,7-tetrahydro-1H-imidazo[4,5-c]pyridine-2-carboxamido)-2′-methyl-[1,1′-biphenyl]-3-yl)carbamoyl)-1-methyl-1,4,6,7-tetrahydro-5H-imidazo[4,5-c]pyridin-5-yl)-1-ethylcyclohexane-1-carboxylic acid] | ≤ 10
9 | Cc1c(NC(=O)c2nc3c(n2C)CCN(C)C3)cccc1-c1cccc(NC(=O)c2nc3c(n2C)CCN(CCc2ccc(C(=O)O)cc2)C3)c1Cl [Example 117, 4-(2-(2-((2-chloro-3′-(1,5-dimethyl-4,5,6,7-tetrahydro-1H-imidazo[4,5-c]pyridine-2-carboxamido)-2′-methyl-[1,1′-biphenyl]-3-yl)carbamoyl)-1-methyl-1,4,6,7-tetrahydro-5H-imidazo[4,5-c]pyridin-5-yl)ethyl)benzoic acid] | ≤ 10

The next lines start with the values.

Row | IC50 [nM] | SMILES
10 | ≤ 10 | Cc1c(NC(=O)c2nc3c(n2C)CCN(C)C3)cccc1-c1cccc(NC(=O)c2nc3c(n2C)CCN(C[C@H]2CC[C@H](C(=O)O)CC2)C3)c1Cl [Example 116, trans-4-((2-((2-chloro-3′-(1,5-dimethyl-4,5,6,7-tetrahydro-1H-imidazo[4,5-c]pyridine-2-carboxamido)-2′-methyl-[1,1′-biphenyl]-3-yl)carbamoyl)-1-methyl-1,4,6,7-tetrahydro-5H-imidazo[4,5-c]pyridin-5-yl)methyl)cyclohexane-1-carboxylic acid]
11 | ≤ 10 | Cn1c(C(=O)Nc2cccc(-c3cccc(NC(=O)c4nc5c(n4C)CCN(C4CCOCC4)C5)c3Cl)c2Cl)nc2c1CCN(CCc1ccc(C(=O)O)cc1)C2 [Example 96, 4-(2-(2-((2,2′-dichloro-3′-(1-methyl-5-(tetrahydro-2H-pyran-4-yl)-4,5,6,7-tetrahydro-1H-imidazo[4,5-c]pyridine-2-carboxamido)-[1,1′-biphenyl]-3-yl)carbamoyl)-1-methyl-1,4,6,7-tetrahydro-5H-imidazo[4,5-c]pyridin-5-yl)ethyl)benzoic acid]
12 | ≤ 10 | Cc1c(NC(=O)c2nc3c(n2C)CCN(C2CCC(O)CC2)C3)cccc1-c1cccc(NC(=O)c2nc3c(n2C)CCN(C2CCC(C)(C(=O)O)CC2)C3)c1Cl (stereo not shown) [Compound 140, 4-(2-((2-chloro-3′-(5-(4-hydroxycyclohexyl)-1-methyl-4,5,6,7-tetrahydro-1H-imidazo[4,5-c]pyridine-2-carboxamido)-2′-methyl-[1,1′-biphenyl]-3-yl)carbamoyl)-1-methyl-1,4,6,7-tetrahydro-5H-imidazo[4,5-c]pyridin-5-yl)-1-methylcyclohexane-1-carboxylic acid]
13 | ≤ 10 | Cc1c(-c2nc3c(o2)CN(C(=O)CN2CCC(C(=O)O)CC2)C3)cccc1-c1cccc(NC(=O)c2nc3c(n2C)CCN(C)C3)c1Cl [Compound 167, 1-(2-(2-(2′-chloro-3′-(1,5-dimethyl-4,5,6,7-tetrahydro-1H-imidazo[4,5-c]pyridine-2-carboxamido)-2-methyl-[1,1′-biphenyl]-3-yl)-4,6-dihydro-5H-pyrrolo[3,4-d]oxazol-5-yl)-2-oxoethyl)piperidine-4-carboxylic acid]

— patent publication US10806785B2, “Immunomodulator compounds and methods of use” (Incyte Corporation, priority 2016, dated 2020)
